Values after ≈ are worked out from the molar mass of the structure shown.
Experiments:
[1] = test system: barnyardgrass; assay: Treatment of soil under submerged condition, post-emergence (Test 5); format: in vivo; details: 30 g ai/a granule, post-emergence (barnyardgrass two-leaf stage), 30 days later
Procedure, shortened: (§1)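 Pots of submerged soil were sown with weed seeds or tubers, and 2-3-leaf rice seedling pairs were transplanted. At barnyardgrass two-leaf stage a granule formulation was applied. Weed emergence and rice injury were rated 30 days later as damage degrees.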

[2] = test system: bulrush; assay: as above; format: in vivo; details: 30 g ai/a granule, 30 days later
Procedure, shortened: as §1

[3] = test system: Sagittaria pygmaea; assay: as above; format: in vivo; details: 30 g ai/a granule, 30 days later
Procedure, shortened: as §1

[4] = test system: narrowleaf waterplantain; assay: Petri dish test (Test 6); format: in vivo; details: 336 h; seeds on filter paper, 25° C., 14 days; read-out: I80 (ppm)
Procedure, shortened: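 Narrowleaf waterplantain seeds placed on filter paper pre-treated with compound in acetone (solvent air-dried) in 9 cm Petri dishes with 10 ml water, grown at 25° C in light. Growth was scored after fourteen days as degree of damage against an untreated group.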

[5] = test system: soybean; assay: Upland soil application test (Test 2), crop injury; format: in vivo; details: 30 g ai/a, soil spray before emergence, 30 days later
Procedure, shortened: (§2)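 Soil-surface application of water-diluted wettable powder at 10 l per are, made one day after seeding and ahead of weed emergence. Plants stayed in the greenhouse for 30 days; injury was rated by air-dried weight versus untreated pots.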

[6] = test system: peanut; assay: Upland soil application test (Test 2), crop injury; format: in vivo; details: 30 g ai/a, soil spray before emergence, 30 days later
Procedure, shortened: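 Weeds are grown from seed incorporated in upland field soil under greenhouse conditions and treated pre-emergence, one day after sowing, with a water-diluted wettable powder of each compound. Effect is scored after 30 days from air-dried weight relative to untreated pots.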

[7] = test system: cotton; assay: Upland soil application test (Test 2), crop injury; format: in vivo; details: 30 g ai/a, soil spray before emergence, 30 days later
Procedure, shortened: as §2

[8] = test system: barnyardgrass; assay: Upland soil application test (Test 2); format: in vivo; details: 30 g ai/a, soil spray before emergence, 30 days later
Procedure, shortened: (§3)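 Pre-emergence test in upland soil pots with weed seeds mixed into the soil; one day after seeding, wettable-powder formulation diluted in water and sprayed onto the soil surface at 10 l per are. Damage scored 30 days later from air-dried weight relative to untreated pots.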

[9] = test system: large crabgrass; assay: Upland soil application test (Test 2); format: in vivo; details: 30 g ai/a, soil spray before emergence, 30 days later
Procedure, shortened: as §3

[10] = test system: redroot pigweed; assay: Upland soil application test (Test 2); format: in vivo; details: 30 g ai/a, soil spray before emergence, 30 days later
Procedure, shortened: as §3

[11] = test system: common lambsquarters; assay: Upland soil application test (Test 2); format: in vivo; details: 30 g ai/a, soil spray before emergence, 30 days later
Procedure, shortened: as §3

[12] = test system: rice; assay: Treatment of soil under submerged condition, post-emergence (Test 5), injury; format: in vivo; details: 30 g ai/a granule, 30 days later
Procedure, shortened: as §1

[13] = test system: ALS (acetolactate syntase); assay: ALS enzyme assay (Test 1); format: biochemical, pea; details: 1,000 ppm (0.5 mg/0.5 ml)
Procedure, shortened: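 Partially purified ALS from dark-grown pea and barnyardgrass seedlings incubated 1 h at 30° C with pyruvate, TPP, MgCl2 and FAD. Compounds tested at 1,000 ppm (0.5 mg/0.5 ml). Acetoin formed detected colorimetrically at 525 nm via creatine/α-naphthol, relative to blank and acid-stopped controls.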

[14] = test system: soybean; assay: Upland foliar application test (Test 3), crop injury; format: in vivo; details: 30 g ai/a, foliar spray at 2-3 leaves, 30th day
Procedure, shortened: (§4)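 Scores record the degree of damage to weeds and injury to crops, observed 30 days after treatment. Each species was seeded in pots of upland-field soil and raised under glass to 2-3 leaves, then its foliage was sprayed with diluted compound emulsion at 5 l per are.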

[15] = test system: peanut; assay: as above; format: in vivo; details: 30 g ai/a, foliar spray at 2-3 leaves, 30th day
Procedure, shortened: as §4

[16] = test system: cotton; assay: as above; format: in vivo; details: 30 g ai/a, foliar spray at 2-3 leaves, 30th day
Procedure, shortened: as §4

Row | SMILES | Herbicidal effects Barnyardgrass [1] | Herbicidal effects Bulrush [2] | Herbicidal effects Sagittaria Pygmaea [3] | IC80 [4] | Injury Soybean [5] | Injury Peanut [6] | Injury Cotton [7] | Herbicidal effects Barnyardgrass [8] | Herbicidal effects Large crabgrass [9] | Herbicidal effects Redroot pigweed [10] | Herbicidal effects Common lambsquarters [11] | Injury Rice [12] | Inhibitory activity (%) Pea [13] | Injury Soybean [14] | Injury Peanut [15] | Injury Cotton [16]
1 | COc1cc(OC)nc(Oc2ccccc2C=NOCC=C(C)Cl)n1 [compound 12] | 5 (0-5 (Death)) | 5 (0-5 (Death)) | 3 (11-40 (Medium damages)) | 100 µg/mL (≈ 275 µM) | 0 (91-100 (No damages)) | 0 (91-100 (No damages)) | 0 (91-100 (No damages)) | 4 (6-10 (Severe damages)) | 4 (6-10 (Severe damages)) | 3 (11-40 (Medium damages)) | 3 (11-40 (Medium damages)) | 0 (91-100 (No damages)) | 0% | 0 (91-100 (No damages)) | 0 (91-100 (No damages)) | 0 (91-100 (No damages))
2 | COc1cc(OC)nc(Oc2ccccc2C=NOCc2ccccc2Cl)n1 [compound 16] | 4 (6-10 (Severe damages)) | 4 (6-10 (Severe damages)) | 3 (11-40 (Medium damages)) | 100 µg/mL (≈ 250 µM) | 0 (91-100 (No damages)) | 0 (91-100 (No damages)) | 0 (91-100 (No damages)) | 3 (11-40 (Medium damages)) | 4 (6-10 (Severe damages)) | 3 (11-40 (Medium damages)) | 3 (11-40 (Medium damages)) | 0 (91-100 (No damages)) | 0% | 0 (91-100 (No damages)) | 0 (91-100 (No damages)) | 0 (91-100 (No damages))
3 | COc1cc(OC)nc(Oc2ccccc2C=NOCc2ccc(C)cc2)n1 [compound 19] | 4 (6-10 (Severe damages)) | 4 (6-10 (Severe damages)) | 3 (11-40 (Medium damages)) | 100 µg/mL (≈ 264 µM) | 0 (91-100 (No damages)) | 0 (91-100 (No damages)) | 0 (91-100 (No damages)) | 4 (6-10 (Severe damages)) | 3 (11-40 (Medium damages)) | 3 (11-40 (Medium damages)) | 4 (6-10 (Severe damages)) | 0 (91-100 (No damages)) | 0% | 0 (91-100 (No damages)) | 0 (91-100 (No damages)) | 0 (91-100 (No damages))
4 | COc1cc(OC)nc(Oc2ccccc2C=NOCc2cccc(C)c2)n1 [compound 20] | 5 (0-5 (Death)) | 4 (6-10 (Severe damages)) | 4 (6-10 (Severe damages)) | 100 µg/mL (≈ 264 µM) | 0 (91-100 (No damages)) | 0 (91-100 (No damages)) | 0 (91-100 (No damages)) | 3 (11-40 (Medium damages)) | 5 (0-5 (Death)) | 5 (0-5 (Death)) | 4 (6-10 (Severe damages)) | 0 (91-100 (No damages)) | 0% | 0 (91-100 (No damages)) | 0 (91-100 (No damages)) | 0 (91-100 (No damages))
5 | COc1cc(OC)nc(Oc2ccccc2C=NOC(C)c2ccccc2)n1 (stereo not drawn) [compound 21] | 3 (11-40 (Medium damages)) | 3 (11-40 (Medium damages)) | 3 (11-40 (Medium damages)) | 100 µg/mL (≈ 264 µM) | 0 (91-100 (No damages)) | 0 (91-100 (No damages)) | 0 (91-100 (No damages)) | 3 (11-40 (Medium damages)) | 4 (6-10 (Severe damages)) | 3 (11-40 (Medium damages)) | 3 (11-40 (Medium damages)) | 0 (91-100 (No damages)) | 0% | 0 (91-100 (No damages)) | 0 (91-100 (No damages)) | 0 (91-100 (No damages))
6 | COc1cc(OC)nc(Oc2ccccc2C=NOCc2cccc3ccccc23)n1 [compound 22] | 5 (0-5 (Death)) | 4 (6-10 (Severe damages)) | 3 (11-40 (Medium damages)) | 100 µg/mL (≈ 241 µM) | 0 (91-100 (No damages)) | 0 (91-100 (No damages)) | 0 (91-100 (No damages)) | 3 (11-40 (Medium damages)) | 3 (11-40 (Medium damages)) | 3 (11-40 (Medium damages)) | 3 (11-40 (Medium damages)) | 0 (91-100 (No damages)) | 0% | 0 (91-100 (No damages)) | 0 (91-100 (No damages)) | 0 (91-100 (No damages))
7 | COc1cc(OC)nc(Oc2ccccc2C=NOCCc2ccccc2)n1 [compound 23] | 5 (0-5 (Death)) | 4 (6-10 (Severe damages)) | 5 (0-5 (Death)) | 100 µg/mL (≈ 264 µM) | 0 (91-100 (No damages)) | 0 (91-100 (No damages)) | 0 (91-100 (No damages)) | 3 (11-40 (Medium damages)) | 3 (11-40 (Medium damages)) | 3 (11-40 (Medium damages)) | 4 (6-10 (Severe damages)) | 0 (91-100 (No damages)) | 0% | 0 (91-100 (No damages)) | 0 (91-100 (No damages)) | 0 (91-100 (No damages))
8 | CCCC=CCON=Cc1ccccc1Oc1nc(OC)cc(OC)n1 [compound 25] | 4 (6-10 (Severe damages)) | 5 (0-5 (Death)) | 3 (11-40 (Medium damages)) | 17 µg/mL (≈ 47.6 µM) | 0 (91-100 (No damages)) | 0 (91-100 (No damages)) | 0 (91-100 (No damages)) | 4 (6-10 (Severe damages)) | 5 (0-5 (Death)) | 4 (6-10 (Severe damages)) | 4 (6-10 (Severe damages)) | 1 (71-90 (Slight damages)) | 0% | 0 (91-100 (No damages)) | 0 (91-100 (No damages)) | 0 (91-100 (No damages))
9 | COc1cc(OC)nc(Oc2ccccc2C=NOCC=Cc2ccc(F)cc2)n1 [compound 29] | 5 (0-5 (Death)) | 4 (6-10 (Severe damages)) | 4 (6-10 (Severe damages)) | 8 µg/mL (≈ 19.5 µM) | 0 (91-100 (No damages)) | 0 (91-100 (No damages)) | 0 (91-100 (No damages)) | 5 (0-5 (Death)) | 5 (0-5 (Death)) | 5 (0-5 (Death)) | 4 (6-10 (Severe damages)) | 1 (71-90 (Slight damages)) | 11% | 0 (91-100 (No damages)) | 0 (91-100 (No damages)) | 0 (91-100 (No damages))
